{"source": "patent US20160214956A1", "about": "“NOVEL SOLUBLE GUANYLATE CYCLASE ACTIVATORS AND THEIR USE” (GLAXOSMITHKLINE INTELLECTUAL PROPERTY DEVELOPMENT LIMITED, priority 2013, published 2016)", "data": [{"target": "T1, human sGC (Homo sapiens, UniProt Q02153)", "T1 sequence (Q02153 1-619)": "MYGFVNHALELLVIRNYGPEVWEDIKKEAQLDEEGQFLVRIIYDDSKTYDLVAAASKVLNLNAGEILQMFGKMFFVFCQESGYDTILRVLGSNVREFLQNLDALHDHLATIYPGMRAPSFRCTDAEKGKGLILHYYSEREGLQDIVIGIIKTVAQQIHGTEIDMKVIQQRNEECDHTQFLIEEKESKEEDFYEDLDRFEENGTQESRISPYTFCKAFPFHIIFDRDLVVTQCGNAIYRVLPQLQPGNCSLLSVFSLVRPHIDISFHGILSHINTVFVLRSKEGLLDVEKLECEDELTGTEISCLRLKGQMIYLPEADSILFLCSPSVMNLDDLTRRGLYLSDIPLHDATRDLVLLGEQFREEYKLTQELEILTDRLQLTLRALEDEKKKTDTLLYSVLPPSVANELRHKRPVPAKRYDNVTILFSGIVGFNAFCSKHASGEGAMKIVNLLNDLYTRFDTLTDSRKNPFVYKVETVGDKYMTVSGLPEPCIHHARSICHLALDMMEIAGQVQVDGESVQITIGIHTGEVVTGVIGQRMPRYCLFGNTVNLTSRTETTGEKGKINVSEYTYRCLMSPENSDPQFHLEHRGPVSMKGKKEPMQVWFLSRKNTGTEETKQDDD", "T1 sequence (Q02108 1-690 partner)": "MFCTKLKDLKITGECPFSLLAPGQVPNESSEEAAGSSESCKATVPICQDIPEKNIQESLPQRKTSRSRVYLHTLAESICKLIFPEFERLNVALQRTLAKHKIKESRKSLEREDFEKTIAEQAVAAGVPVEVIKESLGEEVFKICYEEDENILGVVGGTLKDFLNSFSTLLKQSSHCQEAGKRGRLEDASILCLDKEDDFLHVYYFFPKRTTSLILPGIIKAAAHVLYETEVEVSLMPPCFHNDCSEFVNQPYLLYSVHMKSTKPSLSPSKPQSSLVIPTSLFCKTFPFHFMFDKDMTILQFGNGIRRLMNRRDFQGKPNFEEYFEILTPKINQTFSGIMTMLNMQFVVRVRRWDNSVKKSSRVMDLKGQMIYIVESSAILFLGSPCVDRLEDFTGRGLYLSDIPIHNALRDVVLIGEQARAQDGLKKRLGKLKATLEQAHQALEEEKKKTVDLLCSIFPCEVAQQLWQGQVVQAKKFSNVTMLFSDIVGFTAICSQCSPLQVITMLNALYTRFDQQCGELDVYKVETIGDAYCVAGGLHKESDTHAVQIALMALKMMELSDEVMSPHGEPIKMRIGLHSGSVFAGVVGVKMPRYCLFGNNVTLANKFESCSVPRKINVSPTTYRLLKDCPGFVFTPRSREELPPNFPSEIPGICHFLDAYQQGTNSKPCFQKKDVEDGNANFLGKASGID", "experiment": "sGC enzyme assay, fluorescence polarisation of labelled cGMP", "type": "biochemical", "settings": "human sGC 1 nM, FP assay; concentration able to increase by 5-fold basal cGMP", "description": "The activity of soluble guanylate cyclase (sGC) was tested in an assay based on measuring the fluorescent polarisation (FP) signal of fluorescently labelled cGMP. FP increased on interaction with an anti-cGMP antibody as the motility of the molecule was reduced. Newly produced cGMP displaced the interaction giving rise to a decrease in polarisation and FP signal which was equated to enzyme activity. Compounds were incubated with human sGC, anti-cGMP antibody, the GTP substrate and fluorescently labelled cGMP. After a period of one hour the assay was stopped with the addition of EDTA and after a further hour the assay was read.\nHuman sGC was thawed and resuspended in assay buffer (100 mM TRIS, 10 mM MgCl2, 0.2 mM Tween 20, pH7.4, containing 1:100 dilution of sheep anti-cGMP) to give final concentration of 1 nM in the well. A substrate solution was prepared containing GTP and 8-fluo-cGMP in de-ionized water to a final concentration of 25 μM and 50 nM respectively. Assay plates containing 5 μL of various test compounds and of a standard agonist (50 μM-50 nM) in 1% DMSO as 6 point, four fold dilutions across a 96 well plate were used in the assay. The plate also contained 6 wells of DMSO (1%) to produce high control and a cGMP standard curve (14 nM to 10 μM) to convert FP data to cGMP concentration. 25 μL of enzyme mix and 20 μl of substrate mix described above were added to each well of the plate. Samples were mixed on an orbital shaker and then incubated at room temperature for 1 hour. After this incubation period 5 μl of 0.5M EDTA was added to all wells and the plates were incubated for a further hour at room temperature prior to reading the FP signal in an appropriate reader. For data handling FP data were converted to cGMP concentrations and then fitted using ActivityBase software. The activity of a test compound was determined as the pEC500 value which is the concentration able to increase by 5-fold basal cGMP.", "values": [{"smiles": "Cc1cc(OCCCC(F)(F)F)ccc1CCc1ccccc1-c1cccc(-n2ncc(C(=O)O)c2C(F)(F)F)n1", "note": "[Example 1, 1-(6-(2-(2-methyl-4-(4,4,4-trifluorobutoxy)phenethyl)phenyl)pyridin-2-yl)-5-(trifluoromethyl)-1H-pyrazole-4-carboxylic acid]", "sGC pEC500": 6.95}, {"smiles": "Cc1cc(OCCCn2ccc(C(F)(F)F)n2)ccc1CCc1ccccc1-c1cccc(-n2ncc(C(=O)O)c2C(F)(F)F)n1", "note": "[Example 3, 1-(6-(2-(2-methyl-4-(3-(3-(trifluoromethyl)-1H-pyrazol-1-yl)propoxy)phenethyl)phenyl)pyridin-2-yl)-5-(trifluoromethyl)-1H-pyrazole-4-carboxylic acid]", "sGC pEC500": 7.88}, {"smiles": "O=C(O)c1cnn(-c2cccc(-c3ccccc3OCc3ccc(OCCCC(F)(F)F)cc3F)n2)c1C(F)(F)F", "note": "[Example 5, 1-(6-(2-((2-fluoro-4-(4,4,4-trifluorobutoxy)benzyl)oxy)phenyl)pyridin-2-yl)-5-(trifluoromethyl)-1H-pyrazole-4-carboxylic acid]", "sGC pEC500": 6.88}, {"smiles": "COCCCOc1ccc(COc2ccccc2-c2cccc(-n3ncc(C(=O)O)c3C(F)(F)F)n2)c(F)c1", "note": "[Example 6, 1-(6-(2-((2-fluoro-4-(3-methoxypropoxy)benzyl)oxy)phenyl)pyridin-2-yl)-5-(trifluoromethyl)-1H-pyrazole-4-carboxylic acid]", "sGC pEC500": 7.4}, {"smiles": "Cc1cc(OCCCC#N)ccc1COc1ccccc1-c1cccc(-n2ncc(C(=O)O)c2C(F)(F)F)n1", "note": "[Example 9, 1-(6-(2-((4-(3-cyanopropoxy)-2-methylbenzyl)oxy)phenyl)pyridin-2-yl)-5-(trifluoromethyl)-1H-pyrazole-4-carboxylic acid]", "sGC pEC500": 7.73}, {"smiles": "COCCCOc1ccc(COc2ccccc2-c2cccc(-n3ncc(C(=O)O)c3C(F)(F)F)n2)c(C)c1", "note": "[Example 10, 1-(6-(2-((4-(3-methoxypropoxy)-2-methylbenzyl)oxy)phenyl)pyridin-2-yl)-5-(trifluoromethyl)-1H-pyrazole-4-carboxylic acid]", "sGC pEC500": 7.79}, {"smiles": "Cc1cc(OCCCC(F)(F)F)ccc1COc1ccccc1-c1cccc(-n2ncc(C(=O)O)c2C(F)(F)F)n1", "note": "[Example 11, 1-(6-(2-((2-methyl-4-(4,4,4-trifluorobutoxy)benzyl)oxy)phenyl)pyridin-2-yl)-5-(trifluoromethyl)-1H-pyrazole-4-carboxylic acid]", "sGC pEC500": 7.47}]}]}
